Source: PMC4965013, “Open Source Drug Discovery with the Malaria Box Compound Collection for Neglected Diseases and Beyond” (PLoS Pathogens, 2016)

Key:
P. falciparum = experiment: EC50 listed in S2 Table Metabolomics (used to set the concentration tested); assay type: cell-based; details: Plasmodium falciparum; EC50 used for Factor_XEC50 in metabolomics; read-out: EC50_nM
[1] = test system: P. falciparum 3D7 trophozoites; experiment: Metabolomic fingerprint profiling LC-MS; assay type: cell-based, Plasmodium falciparum; set-up: UDP-D-glucose / ADP-D-glucose: unit not given here; details: for Acetyllysine / N-acetyl-L-ornithine / N-carbamoyl-L-aspartate / NADPH / dAMP / dCMP / dTDP / dTMP / dTTP / dihydroorotate / orotate / DLH / DLS/SDL/SID / PD / PEE / PVNF / 3-phosphoglycerate / ADP-D-glucose / ATP / CDP / D-sedoheptulose-1/7-phosphate / FAD / GMP / NAD+ / NADP+ / Octoluse Bisphosphate / Pyroglutamic acid / UDP-D-glucose / UDP-D-glucuronate / UDP-N-acetyl-glucosamine / UDP / UMP / UTP / a-ketoglutarate / citrate/isocitrate / cytidine / dATP / dGMP/AMP / fumarate / glucose-1/6-phosphate / glycerate / guanine / guanosine / hypoxanthine / indole / inosine / nicotinate / ornithine / phosphoenolpyruvate / pyruvate / ribose-phosphate / sarcosine/alanine / sn-glycerol-3-phosphate / succinate/methylmalonic acid / uridine / xanthosine: S2 Table Metabolomics; for Acetyllysine: metabolite Acetyllysine; for N-acetyl-L-ornithine: metabolite N-acetyl-L-ornithine; for N-carbamoyl-L-aspartate: metabolite N-carbamoyl-L-aspartate; for NADPH: metabolite NADPH; for dAMP: metabolite dAMP; for dCMP: metabolite dCMP; for dTDP: metabolite dTDP; for dTMP: metabolite dTMP; for dTTP: metabolite dTTP; for dihydroorotate: metabolite dihydroorotate; for orotate: metabolite orotate; for DLH: peptide DLH; for DLS/SDL/SID: peptide DLS/SDL/SID; for PD: peptide PD; for PEE: peptide PEE; for PVNF: peptide PVNF; for 3-phosphoglycerate: metabolite 3-phosphoglycerate; for ADP-D-glucose: metabolite ADP-D-glucose; for ATP: metabolite ATP; for CDP: metabolite CDP; for CDP / D-sedoheptulose-1/7-phosphate / GMP / Octoluse Bisphosphate / UDP / UMP / UTP / citrate/isocitrate / dGMP/AMP / fumarate / glucose-1/6-phosphate / glycerate / guanine / guanosine / inosine / pyruvate / sarcosine/alanine / succinate/methylmalonic acid / uridine / xanthosine: change in metabolite level after compound treatment; for D-sedoheptulose-1/7-phosphate: metabolite D-sedoheptulose-1/7-phosphate; for FAD: metabolite FAD; for GMP: metabolite GMP; for NAD+: metabolite NAD+; for NADP+: metabolite NADP+; for Octoluse Bisphosphate: metabolite Octoluse Bisphosphate; for Pyroglutamic acid: metabolite Pyroglutamic acid; for UDP-D-glucose: metabolite UDP-D-glucose; for UDP-D-glucuronate: metabolite UDP-D-glucuronate; for UDP-N-acetyl-glucosamine: metabolite UDP-N-acetyl-glucosamine; for UDP: metabolite UDP; for UMP: metabolite UMP; for UTP: metabolite UTP; for a-ketoglutarate: metabolite a-ketoglutarate; for citrate/isocitrate: metabolite citrate/isocitrate; for cytidine: metabolite cytidine; for dATP: metabolite dATP; for dGMP/AMP: metabolite dGMP/AMP; for fumarate: metabolite fumarate; for glucose-1/6-phosphate: metabolite glucose-1/6-phosphate; for glycerate: metabolite glycerate; for guanine: metabolite guanine; for guanosine: metabolite guanosine; for hypoxanthine: metabolite hypoxanthine; for indole: metabolite indole; for inosine: metabolite inosine; for 2_3-Diphosphoglyceric acid / 4-phosphopantothenate / 6-phospho-D-gluconate / FMN / IMP / Pyrophosphate / Sedoheptoluse bisphosphate / cyclic-AMP / glutathione disulfide / lactate / myo-inositol: metabolite level change after treatment; for nicotinate: metabolite nicotinate; for ornithine: metabolite ornithine; for phosphoenolpyruvate: metabolite phosphoenolpyruvate; for pyruvate: metabolite pyruvate; for ribose-phosphate: metabolite ribose-phosphate; for sarcosine/alanine: metabolite sarcosine/alanine; for sn-glycerol-3-phosphate: metabolite sn-glycerol-3-phosphate; for succinate/methylmalonic acid: metabolite succinate/methylmalonic acid; for uridine: metabolite uridine; for xanthosine: metabolite xanthosine

COc1ccc(NC(=O)C2c3ccccc3C(=O)N(CC(C)C)C2c2cccs2)cc1 (stereo not shown) [MMV000662]
EC50 (P. falciparum): 36.7 nM | Acetyllysine [1]: -4.572 | N-acetyl-L-ornithine [1]: -3.381 | N-carbamoyl-L-aspartate [1]: -2.466 | NADPH [1]: 2.406 | dAMP [1]: 2.2996 | dCMP [1]: 1.058 | dTDP [1]: 1.444 | dTMP [1]: 3.186 | dTTP [1]: 1.443 | dihydroorotate [1]: -3.591 | orotate [1]: -0.05867 | DLH [1]: -6.2862 | DLS/SDL/SID [1]: -4.745 | PD [1]: -2.987 | PEE [1]: -3.507 | PVNF [1]: -6.642 | 3-phosphoglycerate [1]: 0.247 | ADP-D-glucose [1]: -0.1909 | ATP [1]: -1.375 | CDP [1]: -0.7124 | D-sedoheptulose-1/7-phosphate [1]: -1.119 | FAD [1]: -1.511 | GMP [1]: -1.853 | NAD+ [1]: -0.4043 | NADP+ [1]: -0.01609 | Octoluse Bisphosphate [1]: -2.194 | Pyroglutamic acid [1]: 0.3441 | UDP-D-glucose [1]: -0.06213 | UDP-D-glucuronate [1]: -0.01201 | UDP-N-acetyl-glucosamine [1]: 0.08846 | UDP [1]: -1.277 | UMP [1]: -0.622 | UTP [1]: -1.315 | a-ketoglutarate [1]: 0.4405 | citrate/isocitrate [1]: 0.05797 | cytidine [1]: 0.7559 | dATP [1]: 0.06895 | dGMP/AMP [1]: -0.6193 | fumarate [1]: -0.1354 | glucose-1/6-phosphate [1]: -1.428 | glycerate [1]: -0.4765 | guanine [1]: 0.7318 | guanosine [1]: 1.459 | hypoxanthine [1]: 0.3686 | indole [1]: 0.3717 | inosine [1]: 0.5573 | 2_3-Diphosphoglyceric acid [1]: -1.11 | 4-phosphopantothenate [1]: -0.6744 | 6-phospho-D-gluconate [1]: -0.3651 | FMN [1]: 0.04988 | IMP [1]: -0.0547 | Pyrophosphate [1]: -1.578 | Sedoheptoluse bisphosphate [1]: -1.096 | cyclic-AMP [1]: -0.7789 | glutathione disulfide [1]: -0.5026 | lactate [1]: -0.6017 | myo-inositol [1]: -0.9859 | nicotinate [1]: 1.185 | ornithine [1]: 0.01334 | phosphoenolpyruvate [1]: 0.5172 | pyruvate [1]: -1.672 | ribose-phosphate [1]: -0.9727 | sarcosine/alanine [1]: -1.6779 | sn-glycerol-3-phosphate [1]: 0.8186 | succinate/methylmalonic acid [1]: 0.3034 | uridine [1]: 1.71 | xanthosine [1]: -1.3795

CCCN(CCC)CC(O)COc1ccccc1C(=O)Nc1ccccc1 (stereo not shown) [MMV006455]
EC50 (P. falciparum): 196 nM | Acetyllysine [1]: -1.84 | N-acetyl-L-ornithine [1]: -1.412 | N-carbamoyl-L-aspartate [1]: -1.358 | NADPH [1]: 1.245 | dAMP [1]: 1.1553 | dCMP [1]: -0.6709 | dTDP [1]: 0.7128 | dTMP [1]: 1.286 | dTTP [1]: -0.4381 | dihydroorotate [1]: -1.042 | orotate [1]: -1.326 | DLH [1]: -3.333 | DLS/SDL/SID [1]: -1.242 | PD [1]: -1.741 | PEE [1]: -6.259 | PVNF [1]: -1.503 | 3-phosphoglycerate [1]: 0.4787 | ADP-D-glucose [1]: 0.3541 | ATP [1]: 0.3304 | CDP [1]: 0.5091 | D-sedoheptulose-1/7-phosphate [1]: 0.2206 | FAD [1]: 0.7675 | GMP [1]: -0.1404 | NAD+ [1]: 0.6496 | NADP+ [1]: 1.103 | Octoluse Bisphosphate [1]: 0.1196 | Pyroglutamic acid [1]: -0.5503 | UDP-D-glucose [1]: 0.16 | UDP-D-glucuronate [1]: -0.0808 | UDP-N-acetyl-glucosamine [1]: 0.351 | UDP [1]: 0.8505 | UMP [1]: -0.5223 | UTP [1]: -1.889 | a-ketoglutarate [1]: -0.6936 | citrate/isocitrate [1]: -1.1034 | cytidine [1]: 1.29 | dATP [1]: -1.015 | dGMP/AMP [1]: 0.4722 | fumarate [1]: -1.1903 | glucose-1/6-phosphate [1]: 2.348 | glycerate [1]: 0.5071 | guanine [1]: 0.09569 | guanosine [1]: -0.9351 | hypoxanthine [1]: 0.1926 | indole [1]: -0.2645 | inosine [1]: 0.3717 | 2_3-Diphosphoglyceric acid [1]: 0.5499 | 4-phosphopantothenate [1]: 0.373 | 6-phospho-D-gluconate [1]: 0.458 | FMN [1]: 0.8429 | IMP [1]: 0.8206 | Pyrophosphate [1]: -0.6263 | Sedoheptoluse bisphosphate [1]: 0.2316 | cyclic-AMP [1]: 0.1549 | glutathione disulfide [1]: 0.487 | lactate [1]: 1.338 | myo-inositol [1]: 3.347 | nicotinate [1]: 0.09812 | ornithine [1]: -0.2237 | phosphoenolpyruvate [1]: 0.01215 | pyruvate [1]: 0.467 | ribose-phosphate [1]: -0.04809 | sarcosine/alanine [1]: -0.7349 | sn-glycerol-3-phosphate [1]: -0.3619 | succinate/methylmalonic acid [1]: -0.7549 | uridine [1]: 0.2304 | xanthosine [1]: -2.143
